In ChEMBL document CHEMBL4130634, “Discovery of Reversible DNA Methyltransferase and Lysine Methyltransferase G9a Inhibitors with Antitumoral in Vivo Efficacy” (J Med Chem, 2018):

How the values were obtained:
[1] = test system: MV4-11; assay: Antitumor activity against human MV4-11 cells xenografted in SCID-beige mouse assessed as tumor growth inhibition at 30 mg/kg/day via osmotic pump for 2 weeks relative to control; format: functional; conditions: MV4-11, 336 h, read-out: TGI
[2] = molecular target: T1, Histone-lysine N-methyltransferase EHMT2 (Homo sapiens, UniProt Q96KQ7); assay: Inhibition of human G9a using biotinylated-H3K9 peptide as substrate after 1 hr in presence of SAM by TR-FRET assay
T1 sequence (Q96KQ7 whole entry): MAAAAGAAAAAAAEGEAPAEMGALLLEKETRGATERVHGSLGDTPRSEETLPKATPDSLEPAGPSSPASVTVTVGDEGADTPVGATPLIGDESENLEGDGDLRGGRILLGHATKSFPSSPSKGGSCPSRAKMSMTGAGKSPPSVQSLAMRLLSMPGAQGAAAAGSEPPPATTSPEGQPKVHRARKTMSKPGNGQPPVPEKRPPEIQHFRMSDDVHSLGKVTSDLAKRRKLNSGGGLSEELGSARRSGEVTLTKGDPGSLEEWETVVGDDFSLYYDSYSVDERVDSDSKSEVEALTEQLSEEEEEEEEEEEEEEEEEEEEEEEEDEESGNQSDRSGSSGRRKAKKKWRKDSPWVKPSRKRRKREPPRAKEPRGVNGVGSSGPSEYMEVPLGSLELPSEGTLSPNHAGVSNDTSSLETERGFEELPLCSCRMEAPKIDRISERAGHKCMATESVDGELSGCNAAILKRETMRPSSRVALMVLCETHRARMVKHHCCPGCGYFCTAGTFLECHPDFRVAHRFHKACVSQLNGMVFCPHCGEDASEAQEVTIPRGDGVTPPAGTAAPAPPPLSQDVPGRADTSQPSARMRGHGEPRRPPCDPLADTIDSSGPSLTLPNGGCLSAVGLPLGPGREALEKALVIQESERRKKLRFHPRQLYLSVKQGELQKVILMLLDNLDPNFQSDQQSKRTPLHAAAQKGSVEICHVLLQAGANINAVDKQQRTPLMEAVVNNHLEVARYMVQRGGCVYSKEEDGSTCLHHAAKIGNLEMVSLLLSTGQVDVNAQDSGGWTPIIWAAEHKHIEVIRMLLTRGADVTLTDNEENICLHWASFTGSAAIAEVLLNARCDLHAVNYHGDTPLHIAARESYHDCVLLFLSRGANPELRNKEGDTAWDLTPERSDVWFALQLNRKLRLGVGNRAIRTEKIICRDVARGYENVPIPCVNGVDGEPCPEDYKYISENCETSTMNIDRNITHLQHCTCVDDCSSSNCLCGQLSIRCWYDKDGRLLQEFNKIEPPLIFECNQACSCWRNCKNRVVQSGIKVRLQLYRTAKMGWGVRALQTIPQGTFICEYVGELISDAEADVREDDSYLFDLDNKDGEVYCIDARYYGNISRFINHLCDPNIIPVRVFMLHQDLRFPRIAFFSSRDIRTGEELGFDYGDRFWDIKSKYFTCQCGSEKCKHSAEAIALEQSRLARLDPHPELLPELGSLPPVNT

[3] = molecular target: T1, Histone-lysine N-methyltransferase EHMT2; assay: Inhibition of G9a (unknown origin)

| SMILES | inhibition in vivo at 30 mg/kg/day [1] [%] | IC50 [2] [µM] | IC50 [3] [µM] |
| --- | --- | --- | --- |
| COc1cc2c(cc1OCCCN1CCCC1)N=C(N)C21CCC1 | 45 | – | – |
| Cc1cc(Nc2ccc(NC(=O)c3ccc(Nc4ccnc5ccccc45)cc3)cc2)nc(N)n1 | – | > 10 | 59 |
